{
  "source": "paper PMC9704406",
  "about": "(Virulence, 2022)",
  "test_system": "Smh1",
  "format": "biochemical, Legionella pneumophila",
  "conditions": "50 µM TSA, 30 min preincubation; enzyme 156.25 ng/ml; inhibitor",
  "data": [
    {"molecule": "CC(/C=C/C(=O)NO)=C\\[C@@H](C)C(=O)c1ccc(N(C)C)cc1", "note": "[Trichostatin A]", "values": [
      {"measurement": "HDAC-Glo I/II luminescence assay", "value": "TSA significantly reduced Smh1 HDAC activity in comparison to Smh1 alone"}
    ]}
  ]
}
